Test results published in ChEMBL document CHEMBL1221197, “Selective inhibitors of death in mutant huntingtin cells” (Nat Chem Biol, 2007).
Calls of active or inactive are those of the source. The rule behind the calls is not given here.

Legend:
ST14A [1] = test: Inhibition of apoptosis in rat ST14A cells transfected with human htt gene assessed as inhibition of caspase 3 cleavage by Western blot method; assay type: functional, cell-based
PC-12 = test: Inhibition of human huntingtin Q103 mutant expressed in rat PC12 cells assessed as decrease in cell death relative to control; assay type: cell-based; design: concentration or dose not given beside the values
[2] = Inhibition of human huntingtin Q103 mutant expressed in rat PC12 cells assessed as decrease in cell death; assay type: cell-based, PC-12
[3] = Inhibition of human huntingtin N548 mutant expressed in rat ST14A cells assessed as decrease in cell death; assay type: cell-based
Brain = test: Inhibition of medium spiny neuron degeneration in rat brain slice Huntington disease (HD) model after 4 days; assay type: functional, tissue-based
neuronal = test: Inhibition of huntingtin mutant in Caenorhabditis elegans ASH neuronal cell Huntington disease model assessed as cell viability; assay type: cell-based
Saccharomyces cerevisiae = test: Inhibition of huntingtin in Saccharomyces cerevisiae coexpressing exon 1 fragments with polyQ region Huntington disease (HD) model assessed as increase in cell viability
[4] = Cytotoxicity against rat ST14A cells transfected with human htt gene; assay type: cell-based; settings: read-out: TC50 (the source's name)
ST14A [5] = test: Inhibition of apoptosis in rat ST14A cells transfected with human htt gene assessed as inhibition of caspase 7 cleavage by Western blot method; assay type: functional, cell-based
ST14A [6] = test: Inhibition of cell death in rat ST14A cells assessed as cell viability; assay type: functional, cell-based
ST14A [7] = test: Inhibition of rat ST14A cell death expressing human huntingtin N548 mutant assessed as inhibition of cell death at 50 uM after 6 hrs by fluorimetry; assay type: functional, cell-based
ST14A [8] = test: Inhibition of rat ST14A cell death assessed as inhibition of cell death at 50 uM after 6 hrs by fluorimetry; assay type: functional, cell-based

SMILES | inhibition (ST14A [1]) | inhibition (PC-12) | EC50 ([2]; PC-12, read-out: EC50) | EC50 [3] | inhibition (Brain) | INH (neuronal) | inhibition (Saccharomyces cerevisiae) | CC50 [4] | inhibition (ST14A [5]) | EC50 ([2]; pc-12) | inhibition (neuronal) | inhibition (ST14A [6]) | inhibition (ST14A [7]) | inhibition (ST14A [8])
COc1c2c(cc3c1C(CC(=O)/C=C/c1ccco1)[N+](C)(C)CC3)OCO2 (stereo not drawn) | Active | 34% | 22 µM | 9 µM | inactive | 2.2 mM | inactive | 80 µM | inactive | – | – | – | – | –
CC1(C)C(C=C(Cl)Cl)C1C(=O)C1=C(O)CCCC1=O (stereo not drawn) | – | – | – | 10 µM | – | – | inactive | 79 µM | – | Not Active | inactive | – | – | –
O=c1[nH]c2c(c(=O)[nH]1)C(c1cccc([N+](=O)[O-])c1)C=C(c1ccccc1)O2 (stereo not drawn) | – | – | – | 3 µM | – | – | inactive | 110 µM | – | Not Active | inactive | – | – | –
Cc1nc2c(O)c(Br)ccn2c(=O)c1Br | – | – | – | 2 µM | – | – | inactive | 24 µM | – | Not Active | inactive | – | – | –
CCCCc1ccc(C(=O)N(CCC(=O)N2CCC(Cc3ccccc3)CC2)Cc2ccco2)cc1 | – | 27% | 60 µM | 5 µM | – | – | inactive | 41 µM | – | – | inactive | – | – | –
COc1cc2c(cc1OC)C(C)N(C(=O)NCc1ccccc1)CC2 (stereo not drawn) | – | – | – | 3 µM | – | – | inactive | 47 µM | – | Not Active | inactive | – | – | –
CC(C)CC(NC(=O)OCc1ccccc1)C(=O)Oc1ccc2c(=O)c(-c3ccc([N+](=O)[O-])cc3)coc2c1 (stereo not drawn) | – | – | – | 8 µM | – | – | inactive | 38 µM | – | Not Active | inactive | – | – | –
CC(=O)N(C1=C(N(C)C)C(=O)c2ccccc2C1=O)c1ccc(Br)cc1 | – | – | – | 5 µM | – | – | inactive | 29 µM | – | Not Active | inactive | – | – | –
Cc1ccc(-c2nc(NS(=O)(=O)c3ccc(Cl)cc3)sc2C)cc1 | – | – | – | 11 µM | – | – | inactive | 42 µM | – | Not Active | inactive | – | – | –
CCCCCCCCC(=O)N(Cc1ccco1)C(C)c1nc2ccccc2c(=O)n1-c1cc(C)ccc1C (stereo not drawn) | – | 25% | 50 µM | 2 µM | – | – | inactive | 39 µM | – | – | inactive | – | – | –
CCCc1cc(OC(=O)C(CC)c2ccccc2)n(-c2cccc(F)c2)n1 (stereo not drawn) | – | – | – | 11 µM | Active | – | inactive | 218 µM | – | Not Active | inactive | – | – | –
O=C(Cc1cccs1)/C(=N/NC(=O)c1cccc(Br)c1)C(F)(F)F | – | – | – | 5 µM | – | – | inactive | 48 µM | – | Not Active | inactive | inactive | – | –
COc1ccc(C(CCN(CC2CCOC(C)(C)C2)C(C)=O)c2ccccc2)cc1 (stereo not drawn) | – | – | – | 10 µM | – | – | inactive | 49 µM | – | Not Active | inactive | – | – | –
CC1CN(C(C)c2nc3ccccc3c(=O)n2-c2ccc(F)cc2)CCC1C(=O)C1CC1 (stereo not drawn) | – | – | – | 5 µM | – | – | inactive | 37 µM | – | Not Active | inactive | – | – | –
CCC1CN2CCc3cc(OC)c(OC)cc3C2CC1CC1c2cc(OC)c(OC)cc2CCN1C(=O)c1ccco1 (stereo not drawn) | – | – | – | 6 µM | – | – | inactive | 42 µM | – | Not Active | inactive | – | – | –
CC1=NC(Nc2nc(C)c3cc(C)c(C)cc3n2)=NC(C)(C)C1 | – | – | – | 7 µM | – | – | inactive | 32 µM | – | Not Active | inactive | – | – | –
CC(C)C1=CCC2C(=C1)CCC1[C@@]2(C)CCC[C@]1(C)C(=O)O (stereo partly drawn) | – | – | – | 7 µM | – | – | inactive | 53 µM | – | Not Active | inactive | – | – | –
CCCc1cc(OC(=O)c2ccccc2F)n(-c2cccc(F)c2)n1 | Active | 21% | 145 µM | 12 µM | Active | 3 mM | inactive | 235 µM | inactive | – | – | inactive | – | –
CC1=NN(C(N)=S)C(=O)/C1=N/Nc1ccccc1C(F)(F)F | – | – | – | 7 µM | – | – | inactive | 49 µM | – | Not Active | inactive | – | – | –
CCCCCCN(C(=O)CCCC)C(C)c1nc2ccccc2c(=O)n1-c1ccccc1OC (stereo not drawn) | – | – | – | 9 µM | – | – | inactive | 26 µM | – | Not Active | inactive | – | – | –
CCCc1ccc(CC2=C(O)C(=O)c3ccccc3C2=O)cc1 | – | – | – | 7 µM | – | – | inactive | 65 µM | – | Not Active | inactive | – | – | –
COC(=O)C[C@H](NC(=O)OC(C)(C)C)C(=O)CF | – | – | – | – | – | – | – | – | – | – | – | – | Dose-dependent effect | Dose-dependent effect
NNc1nnc(-c2ccccc2)c2ccccc12 | – | 18% | 8 µM | 5 µM | – | – | inactive | 102 µM | – | – | inactive | – | – | –
CCOC(=O)c1cccc(NS(=O)(=O)c2ccc(OC)cc2)c1 | – | – | – | 15 µM | – | – | inactive | 119 µM | – | Not Active | inactive | – | – | –
COc1ccc(CN(CCC2(c3ccccc3)CCOC(C)(C)C2)C(=O)c2ccco2)cc1OC (stereo not drawn) | – | – | – | 5 µM | – | – | inactive | 50 µM | – | Not Active | inactive | – | – | –
CCCCCCCCCC(=O)Oc1cc(-c2ccccc2)nn1-c1cccc(C)c1 | – | 23% | 100 µM | 10 µM | inactive | – | inactive | 75 µM | – | – | inactive | – | – | –
COC1=CC2C(=O)C(=O)N3C2C(=C1)[C@H](C)CC3(C)C (stereo partly drawn) | – | – | – | 16 µM | – | – | inactive | 77 µM | – | Not Active | inactive | – | – | –
CCCN1C(=O)C(=O)c2cc(C)ccc21 | – | – | – | 5 µM | – | – | inactive | 98 µM | – | Not Active | inactive | – | – | –
COc1ccccc1C(CCN(C(C)=O)C(C)c1ccccc1)C1CCC(C)(C)OC1 (stereo not drawn) | – | – | – | 5 µM | – | – | inactive | 47 µM | – | Not Active | inactive | – | – | –
Oc1ccc2c(c1)CC1NCCc3cc(O)c(O)c-2c31 (stereo not drawn) | – | – | – | 15 µM | – | – | inactive | 74 µM | – | Not Active | inactive | – | – | –
